{"source": "patent US10863748B2", "about": "“Antibacterial products and processes for preparing antibacterial products from maple syrup” (priority 2016, dated 2020)", "system": "three bacteria and one yeast", "experiment": "Antimicrobial effect of melamine per se", "format": "cell-based"}
{"smiles": "Nc1nc(N)nc(N)n1", "note": "[melamine, 2,4,6-triamino-1,3,5-triazine]", "values": [{"measurement": "antimicrobial effect", "value": "did not exhibit any antimicrobial effect"}]}
